# From US5508428A, “Spiro compound” (Daiichi Phamaceutical Co., Ltd., priority 1988, dated 1996)
# Key:
# Assay type in all cases: cell-based
# Str. pyogenes, G-36 = experiment: Antibacterial activity (MIC), Str. pyogenes G-36; details: for Antibacterial Activity (MIC): Str. pyogenes; for MIC: Streptococcus pyogenes, G36, Str. pyogenes
# Protocol: (§1) The antibacterial activity assays were performed by the method specified by Japan Society of Chemotherapy (Chemotherapy 29(1), 76 (1981). The table of antibacterial activity is followed by the reaction schemes for the synthesis of various spiro ring-containing cyclic amine derivatives, intermediate compounds for synthesis of quinolone rings and synthesis of various spiro compounds.
# S. epidermidis, 56500 = experiment: Antibacterial activity (MIC), S. epidermidis 56500; details: for Antibacterial Activity (MIC): S. epidermidis; for MIC: Staphylococcus epidermidis, 56500, S. epidermidis
# Protocol: as §1
# [1] = test system: Ps. maltophilia, IID-1275; experiment: Antibacterial activity (MIC), Ps. maltophilia IID-1275; details: for Antibacterial Activity (MIC): Ps. maltophilia; for MIC: Stenotrophomonas maltophilia, IID1275, Ps. maltophilia
# Protocol: as §1
# S. aureus, 209P = experiment: Antibacterial activity (MIC), S. aureus 209P; details: for MIC: Staphylococcus aureus
# Protocol: as §1
# E. coli, NIHJ = experiment: Antibacterial activity (MIC), E. coli NIHJ; details: for MIC: Escherichia coli
# Protocol: as §1
# Ser. marcescens, 10100 = experiment: Antibacterial activity (MIC), Ser. marcescens 10100; details: for Antibacterial Activity (MIC): Ser. marcescens; for MIC: Serratia marcescens, 10100, Ser. marcescens
# Protocol: as §1
# Ps. aeruginosa, 32121 = experiment: Antibacterial activity (MIC), Ps. aeruginosa 32121; details: for Antibacterial Activity (MIC): Ps. aeruginosa; for MIC: Pseudomonas aeruginosa, 32121, Ps. aeruginosa
# Protocol: as §1
# Ps. aeruginosa, 32104 = experiment: Antibacterial activity (MIC), Ps. aeruginosa 32104; details: for Antibacterial Activity (MIC): Ps. aeruginosa; for MIC: Pseudomonas aeruginosa, 32104, Ps. aeruginosa
# Protocol: as §1
# Pr. mirabillis, IF0-3849 = experiment: Antibacterial activity (MIC), Pr. mirabillis IF0-3849
# Protocol: as §1
# Pr. vulgaris, 08601 = experiment: Antibacterial activity (MIC), Pr. vulgaris 08601; details: for MIC: Proteus vulgaris
# Protocol: as §1
# [2] = test system: Str. faecalis, ATCC-19433; experiment: Antibacterial activity (MIC), Str. faecalis ATCC-19433; details: for Antibacterial Activity (MIC): Str. faecalis; for MIC: Enterococcus faecalis, ATCC19433, Str. faecalis
# Protocol: as §1
# S. flexneri, 2A 5503 = experiment: Antibacterial activity (MIC), S. flexneri 2A 5503; details: for MIC: Shigella flexneri, 2A5503
# Protocol: as §1
SMILES,"MIC (Str. pyogenes, G-36)","MIC (S. epidermidis, 56500)",MIC [1],"MIC (S. aureus, 209P)","MIC (E. coli, NIHJ)","MIC (Ser. marcescens, 10100)","MIC (Ps. aeruginosa, 32121)","MIC (Ps. aeruginosa, 32104)","MIC (Pr. mirabillis, IF0-3849)","MIC (Pr. vulgaris, 08601)",MIC [2],"MIC (S. flexneri, 2A 5503)",other results
"NC1CN(c2c(F)cc3c(=O)c(C(=O)O)cn(C4CC4)c3c2F)CC12CC2 (single isomer, unassigned; (-)) [Compound 31b, (-)-7-(7-Amino-5-azaspiro[2.4]heptan-5-yl)-1-cyclopropyl-6,8-difluoro-1,4-dihydro-4-oxoquinoline-3-carboxylic Acid]",,,,,,,,,,,,,"Antibacterial Activity (MIC) (Str. pyogenes, G-36): 0.10 µg/mL; Antibacterial Activity (MIC) (S. epidermidis, 56500): ≤ 0.05 µg/mL; Antibacterial Activity (MIC) [1]: ≤ 0.05 µg/mL; Antibacterial Activity (MIC) (S. aureus, 209P): ≤ 0.05 µg/mL; Antibacterial Activity (MIC) (E. coli, NIHJ): ≤ 0.05 µg/mL; Antibacterial Activity (MIC) (Ser. marcescens, 10100): ≤ 0.05 µg/mL; Antibacterial Activity (MIC) (Ps. aeruginosa, 32121): ≤ 0.05 µg/mL; Antibacterial Activity (MIC) (Ps. aeruginosa, 32104): ≤ 0.05 µg/mL; Antibacterial Activity (MIC) (Pr. mirabillis, IF0-3849): ≤ 0.05 µg/mL; Antibacterial Activity (MIC) (Pr. vulgaris, 08601): ≤ 0.05 µg/mL; Antibacterial Activity (MIC) [2]: 0.10 µg/mL; Antibacterial Activity (MIC) (S. flexneri, 2A 5503): ≤ 0.05 µg/mL"
"N[C@@H]1CN(c2nc3c(cc2F)c(=O)c(C(=O)O)cn3-c2ccc(F)cc2F)CC12CC2 [Compound 111b, (-)-7-[7-(S)-amino-5-azaspiro[2.3]heptan-5-yl)-6-fluoro-1-(2,4-difluorophenyl)-1,4-dihydro-4-oxo-1,8-naphthyridine-3-carboxylate]",0.2 µg/mL,0.1 µg/mL,0.2 µg/mL,≤ 0.05 µg/mL,≤ 0.05 µg/mL,0.1 µg/mL,0.1 µg/mL,0.2 µg/mL,0.2 µg/mL,≤ 0.05 µg/mL,0.39 µg/mL,≤ 0.05 µg/mL,
"NC1CN(c2c(F)cc3c(=O)c(C(=O)O)cn(C4CC4)c3c2F)CC12CC2 (stereo not drawn) [Compound 31, 7-(7-Amino-5-azaspiro[2.4]heptan-5-yl)-1-cyclopropyl-6,8-difluoro-1,4-dihydro-4-oxoquinoline-3-carboxylic Acid]",0.39 µg/mL,0.1 µg/mL,≤ 0.05 µg/mL,≤ 0.05 µg/mL,≤ 0.05 µg/mL,≤ 0.05 µg/mL,≤ 0.05 µg/mL,0.1 µg/mL,≤ 0.05 µg/mL,≤ 0.05 µg/mL,0.2 µg/mL,≤ 0.05 µg/mL,
"C[C@H]1COc2c(N3CC(N)C4(CC4)C3)c(F)cc3c(=O)c(C(=O)O)cn1c23 (single isomer, unassigned; (-)) [Compound 36b]",0.39 µg/mL,0.1 µg/mL,0.39 µg/mL,≤ 0.05 µg/mL,≤ 0.05 µg/mL,0.2 µg/mL,0.1 µg/mL,0.2 µg/mL,0.1 µg/mL,≤ 0.05 µg/mL,0.39 µg/mL,≤ 0.05 µg/mL,
"NC1CN(c2c(F)cc3c(=O)c(C(=O)O)cn(C4CC4)c3c2Cl)CC12CC2 (single isomer, unassigned) [Compound 32b, 7-(7-amino-5-azaspiro[2.4]heptan-5-yl)-8-chloro-1-cyclopropyl-6-fluoro-1,4-dihydro-4-oxoquinoline-3-carboxylic acid]",,,,,,,,,,,,,"Antibacterial Activity (MIC) (Str. pyogenes, G-36): 0.39 µg/mL; Antibacterial Activity (MIC) (S. epidermidis, 56500): ≤ 0.05 µg/mL; Antibacterial Activity (MIC) [1]: ≤ 0.05 µg/mL; Antibacterial Activity (MIC) (S. aureus, 209P): ≤ 0.05 µg/mL; Antibacterial Activity (MIC) (E. coli, NIHJ): ≤ 0.05 µg/mL; Antibacterial Activity (MIC) (Ser. marcescens, 10100): ≤ 0.05 µg/mL; Antibacterial Activity (MIC) (Ps. aeruginosa, 32121): ≤ 0.05 µg/mL; Antibacterial Activity (MIC) (Ps. aeruginosa, 32104): 0.10 µg/mL; Antibacterial Activity (MIC) (Pr. mirabillis, IF0-3849): ≤ 0.05 µg/mL; Antibacterial Activity (MIC) (Pr. vulgaris, 08601): ≤ 0.05 µg/mL; Antibacterial Activity (MIC) [2]: 0.10 µg/mL; Antibacterial Activity (MIC) (S. flexneri, 2A 5503): ≤ 0.05 µg/mL"
"C[C@H]1COc2c(N3CC(N)C4(CC4)C3)c(F)cc3c(=O)c(C(=O)O)cn1c23 (stereo partly drawn) [Compound 36, 10-(7-Amino-5-azaspiro[2.4]heptan-5-yl)-9-fluoro-2,3-dihydro-3-(S)-methyl-7-oxo-7H-pyrido[1,2,3-de][1.4]-benzoxazine-6-carboxylic acid]",0.39 µg/mL,0.2 µg/mL,0.39 µg/mL,0.1 µg/mL,≤ 0.05 µg/mL,0.2 µg/mL,0.1 µg/mL,0.2 µg/mL,0.1 µg/mL,≤ 0.05 µg/mL,0.78 µg/mL,≤ 0.05 µg/mL,
"C[C@H]1COc2c(N3CC(N)C4(CCC4)C3)c(F)cc3c(=O)c(C(=O)O)cn1c23 (stereo partly drawn) [Compound 98, 10-(8-Amino-6-azaspiro[3.4]octan-6-yl)-9-fluoro-2,3-dihydro-3-(S)-methyl-7-oxo-7H-pyrido[1,2,3-de][1,4]-benzoxazine-6-carboxylic acid]",0.39 µg/mL,≤ 0.05 µg/mL,0.2 µg/mL,≤ 0.05 µg/mL,≤ 0.05 µg/mL,0.1 µg/mL,0.2 µg/mL,0.39 µg/mL,0.2 µg/mL,≤ 0.05 µg/mL,0.2 µg/mL,≤ 0.05 µg/mL,
"NC1CN(c2c(F)cc3c(=O)c(C(=O)O)cn(C4CC4)c3c2F)CC12CC2 (single isomer, unassigned; (+)) [Compound 31a, (+)-7-(7-Amino-5-azaspiro[2.4]heptan-5-yl)-1-cyclopropyl-6,8-difluoro-1,4-dihydro-4-oxoquinoline-3-carboxylic Acid]",,,0.1 µg/mL,0.1 µg/mL,≤ 0.05 µg/mL,≤ 0.05 µg/mL,0.1 µg/mL,,0.1 µg/mL,≤ 0.05 µg/mL,,≤ 0.05 µg/mL,"Antibacterial Activity (MIC) (Str. pyogenes, G-36): 1.57 µg/mL; Antibacterial Activity (MIC) (S. epidermidis, 56500): 0.39 µg/mL; Antibacterial Activity (MIC) (Ps. aeruginosa, 32104): 0.20 µg/mL; Antibacterial Activity (MIC) [2]: 0.79 µg/mL"
"NC1CN(c2c(F)cc3c(=O)c(C(=O)O)cn(C4CC4)c3c2Cl)CC12CC2 (single isomer, unassigned) [Compound 32a, 7-(7-amino-5-azaspiro[2.4]heptan-5-yl)-8-chloro-1-cyclopropyl-6-fluoro-1,4-dihydro-4-oxoquinoline-3-carboxylic acid]",0.78 µg/mL,,0.1 µg/mL,0.1 µg/mL,≤ 0.05 µg/mL,0.1 µg/mL,0.1 µg/mL,,0.1 µg/mL,≤ 0.05 µg/mL,,≤ 0.05 µg/mL,"Antibacterial Activity (MIC) (S. epidermidis, 56500): 0.20 µg/mL; Antibacterial Activity (MIC) (Ps. aeruginosa, 32104): 0.39 µg/mL; Antibacterial Activity (MIC) [2]: 0.39 µg/mL"
"NC1CN(c2c(F)cc3c(=O)c(C(=O)O)cn(C4CC4)c3c2Cl)CC12CC2 (racemic) [Compound 32, 7-(7-Amino-5-azaspiro[2.4]heptan-5-yl)-8-chloro-1-cyclopropyl-6-fluoro-1,4-dihydro-4-oxoquinoline-3-carboxylic Acid]",0.1 µg/mL,0.1 µg/mL,≤ 0.05 µg/mL,≤ 0.05 µg/mL,≤ 0.05 µg/mL,≤ 0.05 µg/mL,≤ 0.05 µg/mL,0.1 µg/mL,≤ 0.05 µg/mL,≤ 0.05 µg/mL,0.1 µg/mL,≤ 0.05 µg/mL,
"NC1CN(c2nc3c(cc2F)c(=O)c(C(=O)O)cn3C2CC2)CC12CC2 (single isomer, unassigned; (-)) [Compound 35b, (-)-7-(7-Amino-5-azaspiro[2.4]heptan-5-yl)-1-cyclopropyl-6-fluoro-4-oxo-1,4-dihydro-1,8-naphthyridine-3-carboxylic acid]",0.78 µg/mL,0.1 µg/mL,≤ 0.05 µg/mL,≤ 0.05 µg/mL,≤ 0.05 µg/mL,≤ 0.05 µg/mL,≤ 0.05 µg/mL,≤ 0.05 µg/mL,≤ 0.05 µg/mL,≤ 0.05 µg/mL,0.39 µg/mL,≤ 0.05 µg/mL,
"NC1CN(c2nc3c(cc2F)c(=O)c(C(=O)O)cn3C2CC2)CC12CC2 (stereo not drawn) [Compound 35, 7-(7-amino-5-azaspiro[2.4]heptan-5-yl)-1-cyclopropyl-6-fluoro-1,4-dihydro-4-oxo-1,8-naphthyridine-3-carboxylic acid]",0.78 µg/mL,0.2 µg/mL,≤ 0.05 µg/mL,0.1 µg/mL,≤ 0.05 µg/mL,≤ 0.05 µg/mL,≤ 0.05 µg/mL,0.1 µg/mL,0.1 µg/mL,≤ 0.05 µg/mL,0.39 µg/mL,≤ 0.05 µg/mL,
"O=C(O)c1cn(C2CC2)c2c(Cl)c(N3CC(O)C4(CC4)C3)c(F)cc2c1=O (stereo not drawn) [Compound 39, 7-(7-Hydroxy-5-azaspiro[2.4]heptan-5-yl)-8-chloro-1-cyclopropyl-6-fluoro-1,4-dihydro-4-oxoquinoline-3-carboxylic acid]",0.39 µg/mL,≤ 0.05 µg/mL,≤ 0.05 µg/mL,≤ 0.05 µg/mL,≤ 0.05 µg/mL,0.39 µg/mL,0.39 µg/mL,1.56 µg/mL,0.2 µg/mL,≤ 0.05 µg/mL,0.39 µg/mL,≤ 0.05 µg/mL,
"Cc1c(N2CC(N)C3(CC3)C2)c(F)cc2c(=O)c(C(=O)O)cn(C3CC3)c12 (single isomer, unassigned; (-)) [Compound 55b, (-)-7-(7-Amino-5-azaspiro[2.3]heptan-5-yl)-1-cyclopropyl-6-fluoro-8-methyl-4-oxo-1,4-dihydroquinoline-3-carboxylic acid]",0.1 µg/mL,≤ 0.05 µg/mL,≤ 0.05 µg/mL,≤ 0.05 µg/mL,≤ 0.05 µg/mL,0.1 µg/mL,≤ 0.05 µg/mL,≤ 0.05 µg/mL,≤ 0.05 µg/mL,≤ 0.05 µg/mL,0.1 µg/mL,≤ 0.05 µg/mL,
